The assay deals with pea (cultivar 'Mozart'). The experiment in a line: Growth chamber pot test of Rhizobium strains on pea, biomass and nitrogen in plant tissue (Experiment 1). Type of assay: in vivo. Also on record: Total Nitrogen per Shoot: unit not given here. Particulars: 35 days; for % Nitrogen: shoot tissue. As to the method: • 1) To evaluate eight previously untested Rhizobium strains for their ability to enhance biomass accumulation and nitrogen in legume plant tissue. These eight strains are evaluated against known strains PBI #108 and PBI#101. Note that PBI #108 is a commercial strain of Rhizobium leguminosarum that can be obtained from the Australian Legume Inoculants Research Unit of the New South Wales Agriculture Horticultural Research & Advisory Station, Locked Bag 26, Gosford, New South Wales, 2250, Australia under the deposit number ALIRU SU303. PBI #101 is a strain available from the USDA under deposit number 2449. Experimental Design: Factorial Design: 2 Soil Types (Aberdeen soil, Kyle soil) • 1 Pea seed Cultivar (‘Mozart’) • 12 Seed Treatments (Uninoculated, Nitrogen, Eight untested strains, PBI #108, PBI #101) • Randomized Block. Strain Selection Criteria: • 1) Collected field soil was sifted through a ¼ inch screen to remove any lumps of soil, roots, other plant material, sticks, etc. The soil was then spread out to dry for a period of one week and then placed into plastic bins until needed. • 2) Pots (4-½ inch×5 inch deep) were then labeled according to treatment. A sterile square pieces of spun polyester (black landscape fabric) was then placed into the bottom of each of the pots to prevent the sand/soil mixture from draining out through the pots drainage holes. • 3) A 50% mixture of Kyle soil/silica sand or 50% Aberdeen soil/silica sand (Unimum Industries—industrial quartz) was used as a potting media. • 4) After filling each pot with the sand/soil mixture each pot was placed into a large plastic Ziploc™ bag. • 5) One day before seeding each pot was watered with 150 ml of tap water (non-sterile) and the bags were sealed until seeded. • 6) On the day of seeding 5.5 kg of pea seed—cultivar ‘Mozart’—was divided up into eleven 500 gram amounts and surfaced sterilized via the following method: • a) Place 500 grams of seed into a 2 liter glass Erlenmeyer flask • b) Cover the seeds with 95% Ethanol, let stand 60 seconds then drain. • c) Add a fresh preparation of a 50% bleach solution (1000 mls into 1000 mls water-2.6% NaOCl active), add seed, shake and let stand 5 minutes, then drain. • d) Rinse with 4 changes of R.O. water (non-sterile) followed by one rinse with sterile R.O. water. • 7) After surface sterilization each 500 g amount of seed was spread into an aluminum foil pan lined with sterile paper towel and blotted dry and then transferred into clean large Ziploc™ bags. • 8) After inoculation uninoculated and inoculated pea seeds were planted. Five pea seeds were placed into each pot 2 inches below the surface. Spoons and forceps used to plant the seed were washed and dried thoroughly between treatments. 9) The bags were then sealed and placed into a growth chamber that was set for the following conditions: [table] • 10) Each pot was placed into a plastic bin in a randomized block design (two bins contained one pot of each of the 24 treatments). A total of 20 bins were used to hold all of the treatments. Three times a week (Monday's, Wednesdays and Fridays) each plastic bin was moved one bin position to the right. This was done to ensure differences in light intensity/quality or temperature were consistent for each of the treatments inside the growth chamber. • 11) Bags were kept fully closed until 50% emergence was observed, then fully opened. • 12) Plants were checked daily and watered as required using tap water. • 13) After 35 days plants were photographed (digital image file) and then harvested.

As to Nitrogen, for the setting “Aberdeen soil”, the “Shoot dry weights (mean)” value is 0.45 grams per shoot, the “Total Nitrogen per Shoot” value was 0.0144 and the “% Nitrogen” value is 3.18%. Besides, where the note is “Kyle soil”, the “Shoot dry weights (mean)” value came out at 0.46 grams per shoot, the “Total Nitrogen per Shoot” value is 0.0131 and the “% Nitrogen” value is recorded as 2.80%. Besides, the “Visual Assessment of Plant Color, Ranking Based on Color” value (Kyle soil, ranked from darkest green (1) to yellow/green (12)) turned out to be 1.

These data come from patent US20070212772A1, “RHIZOBIUM LEGUMINOSARUM STRAIN AND USE THEREOF AS PLANT INOCULANT” (priority 2005, published 2007).
